Patent US20210207081A1, “MATURE AIRWAY ORGANOIDS, METHODS OF MAKING AND USES THEREOF” (priority 2018, published 2021)

System: H7N9/Ah virus
Format: cell-based, Influenza A virus A/Anhui/1/2013(H7N9)

Q: How did the “replication of H7N9/Ah virus” value turn out when `NCCc1ccc(S(=O)(=O)F)cc1` [AEBSF] was run?
A: The value was “significantly restricted the active replication of H7N9/Ah virus”.
